# Species on record: Rattus norvegicus
# Test: Open TG-GATES - Regimen: Single
# Type: toxicity, organism-based, Sprague-Dawley
# Parameters: regimen Single, gender Male, age 6 weeks
# Details: in vivo, po, 1000 mg/kg, route gavage, dose level High; for APTT / Bas / Eos / Fbg / Hb / Ht / Lym / MCH / MCHC / MCV / Mono / Neu / PT / Plat / RBC / Ret / WBC: tissue Blood; for KIDNEY_L / KIDNEY_R / KIDNEY_TOTAL: tissue Kidney; for LIVER: tissue Liver; for A/G / ALP / ALT / AST / BUN / CRE / Ca / Cl / DBIL / GLC / IP / K / LDH / Na / PL / RALB / TBIL / TC / TG / TP / gamma-GTP: tissue Plasma
smiles,measurement,setting,value
O=C(O)COc1nn(Cc2ccccc2)c2ccccc12 [BENDAZAC],TERMINAL_BW,3 h,213.4 g
same,APTT,3 h,16.9 s
same,Bas,3 h,0%
same,Eos,3 h,1.2%
same,Fbg,3 h,207.6 mg/dL
same,Hb,3 h,13.6 g/dL
same,Ht,3 h,40.3%
same,Lym,3 h,74%
same,MCH,3 h,21.9 pg
same,MCHC,3 h,33.7%
same,MCV,3 h,65.1 fL
same,Mono,3 h,7.8%
same,Neu,3 h,16.8%
same,PT,3 h,11.3 s
same,Plat,3 h,130.3 x10_4/uL
same,RBC,3 h,620.2 x10_4/ul
same,Ret,3 h,12%
same,WBC,3 h,92.8 x10_2/uL
same,KIDNEY_L,3 h,1 g
same,KIDNEY_R,3 h,1 g
same,KIDNEY_TOTAL,3 h,2 g
same,LIVER,3 h,9.7 g
same,A/G,3 h,2.2
same,ALP,3 h,1482.6 IU/L
same,ALT,3 h,35.2 IU/L
same,AST,3 h,67.8 IU/L
same,BUN,3 h,12.2 mg/dL
same,CRE,3 h,0.5 mg/dL
same,Ca,3 h,10.6 mg/dL
same,Cl,3 h,100.2 meq/L
same,DBIL,3 h,0.04 mg/dL
same,GLC,3 h,195.2 mg/dL
same,IP,3 h,10.1 mg/dL
same,K,3 h,4.8 meq/L
same,LDH,3 h,99.8 IU/L
same,Na,3 h,140 meq/L
same,PL,3 h,133.6 mg/dL
same,RALB,3 h,3.7 g/dL
same,TBIL,3 h,1.4 mg/dL
same,TC,3 h,73.2 mg/dL
same,TG,3 h,42.2 mg/dL
same,TP,3 h,5.4 g/dL
same,gamma-GTP,3 h,1.2 IU/L
same,TERMINAL_BW,6 h,205.5 g
same,APTT,6 h,17.1 s
same,Bas,6 h,0%
same,Eos,6 h,1.2%
same,Fbg,6 h,215.4 mg/dL
same,Hb,6 h,14 g/dL
same,Ht,6 h,41.8%
same,Lym,6 h,68.2%
same,MCH,6 h,22.1 pg
same,MCHC,6 h,33.5%
same,MCV,6 h,66 fL
same,Mono,6 h,8%
same,Neu,6 h,23.4%
same,PT,6 h,11.8 s
same,Plat,6 h,126.4 x10_4/uL
same,RBC,6 h,633.4 x10_4/ul
same,Ret,6 h,14.3%
same,WBC,6 h,86.8 x10_2/uL
same,KIDNEY_L,6 h,0.9 g
same,KIDNEY_R,6 h,0.9 g
same,KIDNEY_TOTAL,6 h,1.9 g
same,LIVER,6 h,8.6 g
same,A/G,6 h,2.1
same,ALP,6 h,2888.2 IU/L
same,ALT,6 h,33.8 IU/L
same,AST,6 h,67.4 IU/L
same,BUN,6 h,10.6 mg/dL
same,CRE,6 h,0.6 mg/dL
same,Ca,6 h,10.5 mg/dL
same,Cl,6 h,100 meq/L
same,DBIL,6 h,0.046 mg/dL
same,GLC,6 h,189.8 mg/dL
same,IP,6 h,10.8 mg/dL
same,K,6 h,4.5 meq/L
same,LDH,6 h,114.6 IU/L
same,Na,6 h,141 meq/L
same,PL,6 h,138 mg/dL
same,RALB,6 h,3.7 g/dL
same,TBIL,6 h,1.5 mg/dL
same,TC,6 h,83 mg/dL
same,TG,6 h,21.2 mg/dL
same,TP,6 h,5.4 g/dL
same,gamma-GTP,6 h,0.8 IU/L
same,TERMINAL_BW,9 h,202.5 g
same,APTT,9 h,17.9 s
same,Bas,9 h,0%
same,Eos,9 h,1%
same,Fbg,9 h,213.4 mg/dL
same,Hb,9 h,13.6 g/dL
same,Ht,9 h,40.7%
same,Lym,9 h,79.6%
same,MCH,9 h,21.7 pg
same,MCHC,9 h,33.5%
same,MCV,9 h,64.9 fL
same,Mono,9 h,7.4%
same,Neu,9 h,12.2%
same,PT,9 h,11.8 s
same,Plat,9 h,120.8 x10_4/uL
same,RBC,9 h,627.8 x10_4/ul
same,Ret,9 h,8%
same,WBC,9 h,71.1 x10_2/uL
same,KIDNEY_L,9 h,0.9 g
same,KIDNEY_R,9 h,1 g
same,KIDNEY_TOTAL,9 h,1.9 g
same,LIVER,9 h,7.9 g
same,A/G,9 h,2.1
same,ALP,9 h,5387.2 IU/L
same,ALT,9 h,28 IU/L
same,AST,9 h,63.6 IU/L
same,BUN,9 h,11.2 mg/dL
same,CRE,9 h,0.6 mg/dL
same,Ca,9 h,10.3 mg/dL
same,Cl,9 h,100.8 meq/L
same,DBIL,9 h,0.032 mg/dL
same,GLC,9 h,177.6 mg/dL
same,IP,9 h,10 mg/dL
same,K,9 h,4.6 meq/L
same,LDH,9 h,92.8 IU/L
same,Na,9 h,141.6 meq/L
same,PL,9 h,129.8 mg/dL
same,RALB,9 h,3.7 g/dL
same,TBIL,9 h,1.5 mg/dL
same,TC,9 h,75.8 mg/dL
same,TG,9 h,30.2 mg/dL
same,TP,9 h,5.5 g/dL
same,gamma-GTP,9 h,1 IU/L
same,TERMINAL_BW,24 h,203.6 g
same,APTT,24 h,16.8 s
same,Bas,24 h,0%
same,Eos,24 h,1.6%
same,Fbg,24 h,193 mg/dL
same,Hb,24 h,14 g/dL
same,Ht,24 h,41.8%
same,Lym,24 h,77%
same,MCH,24 h,21.6 pg
same,MCHC,24 h,33.4%
same,MCV,24 h,64.6 fL
same,Mono,24 h,6.6%
same,Neu,24 h,15.2%
same,PT,24 h,13.1 s
same,Plat,24 h,133.3 x10_4/uL
same,RBC,24 h,647.6 x10_4/ul
same,Ret,24 h,10.7%
same,WBC,24 h,92.1 x10_2/uL
same,KIDNEY_L,24 h,1 g
same,KIDNEY_R,24 h,1 g
same,KIDNEY_TOTAL,24 h,1.9 g
same,LIVER,24 h,9 g
same,A/G,24 h,2.4
same,ALP,24 h,6419.2 IU/L
same,ALT,24 h,31.2 IU/L
same,AST,24 h,58 IU/L
same,BUN,24 h,12.6 mg/dL
same,CRE,24 h,0.7 mg/dL
same,Ca,24 h,10.7 mg/dL
same,Cl,24 h,99 meq/L
same,DBIL,24 h,0.056 mg/dL
same,GLC,24 h,180.6 mg/dL
same,IP,24 h,8.6 mg/dL
same,K,24 h,4.3 meq/L
same,LDH,24 h,104.4 IU/L
same,Na,24 h,140.2 meq/L
same,PL,24 h,110.8 mg/dL
same,RALB,24 h,3.9 g/dL
same,TBIL,24 h,1.9 mg/dL
same,TC,24 h,63.8 mg/dL
same,TG,24 h,31.6 mg/dL
same,TP,24 h,5.5 g/dL
same,gamma-GTP,24 h,0.8 IU/L
